Tests used:
[1] = tested on: D2' (DNA, hairpin) CATTGTCAGACTTTTTGTCTGACAATG; experiment: CD titration (ICD); details: 10 mM KCl, 10 mM MgCl2, 5 mM CaCl2, 10 μM DNA
[2] = tested on: D2 (DNA, hairpin) CATTGTTAGACTTTTTGTCTAACAATG; experiment: CD titration (ICD); details: 10 mM KCl, 10 mM MgCl2, 5 mM CaCl2, 10 μM DNA
[3] = tested on: D2' (DNA, hairpin) CATTGTCAGACTTTTTGTCTGACAATG; experiment: CD/UV melting at 260 nm; details: 10 mM KCl, 10 mM MgCl2, 5 mM CaCl2; sodium dimethyl arsinate pH 6.9, 6% DMSO; 3.6 equiv compound, 8.87 μM DNA
[4] = tested on: D2 (DNA, hairpin) CATTGTTAGACTTTTTGTCTAACAATG; experiment: CD/UV melting at 260 nm; details: 10 mM KCl, 10 mM MgCl2, 5 mM CaCl2; sodium dimethyl arsinate pH 6.9, 6% DMSO; 3.9 equiv compound, 8.87 μM DNA
[5] = tested on: D1 (DNA, hairpin) CATTGTCAGCCTTTTTGGCTGACAATG; experiment: CD titration (ICD); details: 10 mM KCl, 10 mM MgCl2, 5 mM CaCl2, 10 μM DNA
[6] = tested on: D1' (DNA, hairpin) CATTGTTAGCCTTTTTGGCTAACAATG; experiment: CD titration (ICD); details: 10 mM KCl, 10 mM MgCl2, 5 mM CaCl2, 10 μM DNA
[7] = tested on: D1 (DNA, hairpin) CATTGTCAGCCTTTTTGGCTGACAATG; experiment: CD/UV melting at 260 nm; details: 10 mM KCl, 10 mM MgCl2, 5 mM CaCl2; sodium dimethyl arsinate pH 6.9, 6% DMSO; 3.3 equiv compound, 8.87 μM DNA
[8] = tested on: D1' (DNA, hairpin) CATTGTTAGCCTTTTTGGCTAACAATG; experiment: CD/UV melting at 260 nm; details: 10 mM KCl, 10 mM MgCl2, 5 mM CaCl2; sodium dimethyl arsinate pH 6.9, 6% DMSO; 3.3 equiv compound, 8.87 μM DNA
[9] = tested on: D3 (DNA, hairpin) CATTGTCATGCCTTTTTGGCATGACAATG; experiment: CD titration (ICD); details: 10 mM KCl, 10 mM MgCl2, 5 mM CaCl2, 10 μM DNA
[10] = tested on: D3' (DNA, hairpin) CATTGTTATGCCTTTTTGGCATAACAATG; experiment: CD titration (ICD); details: 10 mM KCl, 10 mM MgCl2, 5 mM CaCl2, 10 μM DNA
[11] = tested on: D3' (DNA, hairpin) CATTGTTATGCCTTTTTGGCATAACAATG; experiment: CD/UV melting at 260 nm; details: 10 mM KCl, 10 mM MgCl2, 5 mM CaCl2; sodium dimethyl arsinate pH 6.9, 6% DMSO; 3.7 equiv compound, 8.87 μM DNA
[12] = tested on: D3 (DNA, hairpin) CATTGTCATGCCTTTTTGGCATGACAATG; experiment: CD/UV melting at 260 nm; details: 10 mM KCl, 10 mM MgCl2, 5 mM CaCl2; sodium dimethyl arsinate pH 6.9, 6% DMSO; 3.3 equiv compound, 8.87 μM DNA
[13] = 10 mM sodium dimethyl arsinate pH 6.9, 20 °C, up to 4.8 equiv, no ICD
[14] = 10 mM sodium dimethyl arsinate pH 6.9, up to 6% DMSO, 20 °C
[15] = 10 mM sodium dimethyl arsinate pH 6.9, up to 6% DMSO, 20 °C, saturation not reached

With `CN(C)CCCNC(=O)CCNC(=O)c1cc(NC(=O)c2cc(NC(=O)c3cc(NC(=O)Cc4cccc(/N=N/c5cccc(CNC(=O)c6cc(NC(=O)c7cc(NC(=O)c8nccn8C)cn7C)cn6C)c5)c4)cn3C)cn2C)cn1C` as the compound, how does the binding [1, 13] read?
Its binding is “no”.

And the binding [2, 13]?
The binding was “no”.

What does the source list for `CN(C)CCCNC(=O)CCNC(=O)c1cc(NC(=O)c2cc(NC(=O)c3cc(NC(=O)Cc4cccc(/N=N\c5cccc(CNC(=O)c6cc(NC(=O)c7cc(NC(=O)c8nccn8C)cn7C)cn6C)c5)c4)cn3C)cn2C)cn1C`?
KD [1, 14]: 42.2 ± 6.3 µM; ΔTm [3]: 1.4 K; ΔTm [4]: 2.0 K; KD [2, 15]: 52.3 ± 21.0 µM

With `CN(C)CCCNC(=O)CCNC(=O)c1cc(NC(=O)c2cc(NC(=O)c3nc(NC(=O)Cc4cccc(/N=N/c5cccc(CNC(=O)c6cc(NC(=O)c7cc(NC(=O)c8nccn8C)cn7C)cn6C)c5)c4)cn3C)cn2C)cn1C` as the compound, how does the binding [5, 13] read?
The binding was “no”.

And the binding [6, 13]?
Its binding is “no”.

With `CN(C)CCCNC(=O)CCNC(=O)c1cc(NC(=O)c2cc(NC(=O)c3nc(NC(=O)Cc4cccc(/N=N\c5cccc(CNC(=O)c6cc(NC(=O)c7cc(NC(=O)c8nccn8C)cn7C)cn6C)c5)c4)cn3C)cn2C)cn1C` as the compound, how does the ΔTm [7] read?
The ΔTm was 3.5 K.

What about the KD [5, 14] of the same compound?
The KD was 11.8 ± 6.0 µM.

What about the ΔTm [8] of the same compound?
The ΔTm was 2.1 K.

What about the KD [6, 14] of the same compound?
Its KD is 13.2 ± 7.8 µM.

For `CN(C)CCCNC(=O)CCNC(=O)c1cc(NC(=O)c2cc(NC(=O)c3nc(NC(=O)c4cc(NC(=O)Cc5cccc(/N=N/c6cccc(CNC(=O)c7cc(NC(=O)c8cc(NC(=O)c9cc(NC(=O)c%10nccn%10C)cn9C)cn8C)cn7C)c6)c5)cn4C)cn3C)cn2C)cn1C`, which binding [9, 13] is on record?
Its binding is “no”.

What about the binding [10, 13] of the same compound?
The binding was “no”.

For `CN(C)CCCNC(=O)CCNC(=O)c1cc(NC(=O)c2cc(NC(=O)c3nc(NC(=O)c4cc(NC(=O)Cc5cccc(/N=N\c6cccc(CNC(=O)c7cc(NC(=O)c8cc(NC(=O)c9cc(NC(=O)c%10nccn%10C)cn9C)cn8C)cn7C)c6)c5)cn4C)cn3C)cn2C)cn1C`, which KD [9, 14] is on record?
The KD was 21.3 ± 11.2 µM.

And the KD [10, 15]?
The KD was 52.9 ± 29.6 µM.

What about the ΔTm [11] of the same compound?
Its ΔTm is 0.4 K.

And the ΔTm [12]?
The ΔTm was 3.5 K.

From article PMC6964667 (2020)
